Tests used:
fed hepatocytes [1] = assay: Glucose release, lactate and pyruvate (metabolites) in isolated fed hepatocytes; type: cell-based, rat; conditions: 0.5 mM; for Pyruvate: No Addition 0.186 ± 0.040; for Lactate: No Addition 0.317 ± 0.095
Method: (§1) Hepatocytes are prepared from ad lib fed rats or 8-hour fasted rats by the method of Berry and Friend (1969) with minor modifications (McCune and Harris, 1979 J. Biol. Chem. 254,10095-10101.) Lean female rats (200-300 g) are ad lib fed and on a 8:00 a.m.-8:00 p.m. light cycle. The cells are isolated between 9:00-10:00 a.m., to compensate for any diurnal rhythms such as glycogen depletion.
(§2) The cells are suspended in 2 mls of Krebs-Henseleit buffer supplemented with 2% BSA (essentially fatty acid free and dialyzed) under an atmosphere of 95% O2, 5% CO2 in stoppered 25 ml Erlenmeyer flasks. Incubations were conducted in a shaking water bath at 37° C. for appropriate times. Cells for fatty acid and cholesterol synthesis were treated with […] of H2 O(10mCi/ml) after 30 minutes of pre-incubation and stopped at 60 minutes.
Assay of metabolites: Cells are terminated with HClO4 (0.1 ml of 60%) and treated as described previously; McCune et al., 1981 Methods of Enzymology 72, 557-559). The metabolites in the extracts are measured spectrophotometrically by enzymatic methods, according to the methods of Hohorst et al. (1959 Biochem. Z., 332,18-46) for pyruvate and lactate, Williamson et al. (1962) for acetoacetate and beta-hydroxybutyrate, Slein (1965) for glucose, Michal and Bergmeyer (1974) for acetyl-CoA, McCune, et al. (ibid) for glycogen, Mollering and Gruber (1966 Anal. Biochem. 17, 369-379) for citrate, and Lambrecht and Trautschold (1974 Methods of Enzymatic Analysis, 2101 2109) for ATP.
(§3) Various compounds of the present invention were added to various concentrations to the hepatocytes and incubated for a short period of time. The effect of the compound was evaluated on cholesterol, fatty acid and glucose synthesis as well on other metabolites in the cell.

fed hepatocytes [2] = assay: Fatty acid and cholesterol synthesis in isolated fed hepatocytes; type: cell-based, rat; conditions: 0.5 mM; for Cholesterol Synthesis: No Addition 0.013 ± 0.002; for Fatty Acid Synthesis: No Addition 0.024 ± 0.004
Method: as §1, §2
Determination of cholesterol and fatty acid synthesis: The rate of fatty acid synthesis and cholesterol synthesis, expressed as moles of acetate equivalents/g wet weight of hepatocytes are determined by the incorporation of H2 O into total lipid, and extracted by the methods of Kates (1972 Tech. of Lipidology, 349, 363) and Harris (1975 Arch. Biochem. Biophys. 169, 168-180). Calculations are done according to Jungas (1968 Biochemistry 7, 3708-3717).
as §3

Structure (SMILES)	Pyruvate (fed hepatocytes [1])	Lactate (fed hepatocytes [1])	Cholesterol Synthesis (fed hepatocytes [2]) [mmoles/min/gm wet weight]	Fatty Acid Synthesis (fed hepatocytes [2]) [mmoles/min/gm wet weight]
CC(C)(C)CCCCCCCCCCCC(O)(CC(=O)O)CC(=O)O [Prior Art Compound, 3hydroxy-3-[12,12dimethyltridecyl]glutaric acid, reference compound]	0.110 ± 0.013 mmoles/ml incubation medium	0.383 ± 0.085 mmoles/ml incubation medium	0.010 ± 0.002	0.010 ± 0.002
COC(=O)C(C)(C)CCCCCCCCCCCC(O)(CC(=O)O)CC(=O)O [Example 10, 3-(12-Carbomethoxy-12-methyl-tridecyl)-3-hydroxy glutaric acid]	0.220 ± 0.031 mmoles/ml incubation medium	0.477 ± 0.084 mmoles/ml incubation medium	0.003 ± 0.001	0.003 ± 0.001
CC(C)(CO)CCCCCCCCCCCC(O)(CC(=O)O)CC(=O)O [Example 14, 3-(13-Hydroxy-12,12-dimethyl-tridecyl)-3-hydroxy glutaric acid]	0.185 ± 0.042 mmoles/ml incubation medium	0.400 ± 0.091 mmoles/ml incubation medium	0.004 ± 0.001	0.003 ± 0.001
CC(C)(CCCCCCCCCCCC(O)(CC(=O)O)CC(=O)O)C(=O)O [Example 11, 3-(12-Carboxy-12-methyl-tridecyl)-3-hydroxy glutaric acid]	0.202 ± 0.028 mmoles/ml incubation medium	0.437 ± 0.104 mmoles/ml incubation medium	0.002 ± 0.001	0.003 ± 0.001
